Reference: patent US20240140944A1, “NOVEL NAPHTHYRIDINONE DERIVATIVE HAVING INHIBITORY ACTIVITY AGAINST ECTONUCLEOTIDE PYROPHOSPHATASE-PHOSPHODIESTERASE AND USE THEREOF” (TXINNO BIOSCIENCE INC., priority 2020, published 2024)
Structures can show the parent of a compound that is named as a salt.

What was measured:
[1] = test system: interferon regulatory factor 3 (IRF3) in HCT116-Dual cells; experiment: HCT116-Dual Cell Luciferase Assay (ISG54 promoter, IRF3 activity); type: cell-based; details: ENPP1 inhibitor usually 10 μM plus cGAMP 10 μM, 48 hours, Lucia luciferase
Excerpt: HCT116-Dual™ cells express genes encoding luciferase secreted under the control of the interferon-stimulated gene 54 (ISG54) promoter along with five interferon-stimulated response elements. The HCT116-Dual™ cell line was used to measure and monitor the activity of interferon regulatory factor 3 (IRF3), which induces production of type I interferon and relates to downstream signaling, and Lucia secreted in the culture medium was used to generate luminescence in a luciferase reaction.
HCT116-Dual™ cells were cultured at 2×10^4 cells/well (93.4 μL) in a 96-well plate for one day in a DMEM medium containing 10% FBS and 25 mM HEPES (pH 7.2-7.5). The cells were treated with 3.3 μL of ENPP1 inhibitor (usually 10 μM) and then 3.3 μL of cGAMP (10 μM) to set the final volume to 100 μL (The final fraction of DMSO was 0.1%). The cells treated with ENPP1 inhibitor and cGAMP were cultured at 37° C. for 48 hours and 50 μL of Quanti-Luc reaction solution was added to 20 μL of cell culture medium to measure luciferase activity. The increase in interferon regulatory factor 3 (IRF3) by the compound compared to cGAMP was determined as fold.

[2] = target: T1, human recombinant ENPP1 enzymes (Homo sapiens, UniProt P22413); experiment: ENPP1 Enzyme Assay with cGAMP Substrate (AMP-Glo); type: biochemical; details: human recombinant ENPP1 3 ng/reaction, cGAMP 5 μM, 37° C. 90 minutes, average of two or more tests; read-out: Enzymatic activity IC50
T1 construct: purchased R & D systems
T1 sequence (P22413 1-925): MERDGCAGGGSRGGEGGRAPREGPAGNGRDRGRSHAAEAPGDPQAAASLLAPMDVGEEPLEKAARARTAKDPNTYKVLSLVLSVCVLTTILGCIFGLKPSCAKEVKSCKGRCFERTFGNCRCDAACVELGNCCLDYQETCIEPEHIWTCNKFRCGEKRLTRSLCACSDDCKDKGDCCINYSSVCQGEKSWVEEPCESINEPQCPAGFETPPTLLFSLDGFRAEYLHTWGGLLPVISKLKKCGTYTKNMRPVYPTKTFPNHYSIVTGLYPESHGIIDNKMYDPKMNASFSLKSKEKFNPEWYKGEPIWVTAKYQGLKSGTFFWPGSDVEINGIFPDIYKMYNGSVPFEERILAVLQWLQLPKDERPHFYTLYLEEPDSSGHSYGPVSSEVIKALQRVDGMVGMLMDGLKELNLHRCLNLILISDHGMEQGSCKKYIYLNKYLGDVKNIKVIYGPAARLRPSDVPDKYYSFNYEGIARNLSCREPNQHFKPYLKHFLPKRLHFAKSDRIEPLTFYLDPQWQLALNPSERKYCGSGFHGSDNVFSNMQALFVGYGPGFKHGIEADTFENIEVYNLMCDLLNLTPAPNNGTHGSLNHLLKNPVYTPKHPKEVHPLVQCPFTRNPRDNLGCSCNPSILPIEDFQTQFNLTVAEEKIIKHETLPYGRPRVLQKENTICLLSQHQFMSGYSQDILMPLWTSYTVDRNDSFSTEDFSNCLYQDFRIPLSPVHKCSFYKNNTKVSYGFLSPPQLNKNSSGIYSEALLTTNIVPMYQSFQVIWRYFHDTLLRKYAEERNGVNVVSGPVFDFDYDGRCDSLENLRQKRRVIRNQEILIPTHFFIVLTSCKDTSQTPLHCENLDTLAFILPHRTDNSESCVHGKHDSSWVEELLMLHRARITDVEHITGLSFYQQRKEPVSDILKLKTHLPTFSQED
Method in brief: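 Human recombinant ENPP1 (3 ng/reaction) preincubated 5–10 min at RT with inhibitor, then reacted with 5 µM cGAMP for 90 min at 37 °C in 50 mM Tris pH 8.5, 250 mM NaCl, 0.5 mM CaCl2, 1 µM ZnCl2, 1% DMSO. AMP produced read by AMP-Glo luminescence; IC50 from 3-parameter fit, averaged over ≥2 runs.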

| SMILES | IC50 [2] | Cellular activity: increase in IRF3 by the compound compared to cGAMP, as fold [1] |
| --- | --- | --- |
| Cl.O=c1ccc2c(-c3ccc(CNC4CC4)c(F)c3)ccnc2[nH]1 [Example 25, 5-(4-((cyclopropylamino)methyl)-3-fluorophenyl)-1,8-naphthyridin-2(1H)-one hydrochloride] | 1000 to 10000 nM | A (>2) |
| Cl.O=c1ccc2c(-c3cc4c(cc3F)CCNC4)ccnc2[nH]1 [Example 28, 5-(6-fluoro-1,2,3,4-tetrahydroisoquinolin-7-yl)-1,8-naphthyridin-2(1H)-one hydrochloride] | < 1000 nM | B (1< Fold <2) |
| CN(Cc1ccc(-c2ccnc3[nH]c(=O)ccc23)c(F)c1)S(N)(=O)=O.Cl [Example 55, N-(3-fluoro-4-(7-oxo-7,8-dihydro-1,8-naphthyridin-4-yl)benzyl)-N-methylsulfamide hydrochloride] | < 1000 nM | B (1< Fold <2) |
| CCN(Cc1ccc(-c2ccnc3[nH]c(=O)ccc23)c(F)c1)S(N)(=O)=O.Cl [Example 56, N-ethyl-N-(3-fluoro-4-(7-oxo-7,8-dihydro-1,8-naphthyridin-4-yl)benzyl)sulfamide hydrochloride] | < 1000 nM | B (1< Fold <2) |
| Cl.NS(=O)(=O)N(Cc1ccc(-c2ccnc3[nH]c(=O)ccc23)c(F)c1)C1CC1 [Example 58, N-cyclopropyl-N-(3-fluoro-4-(7-oxo-7,8-dihydro-1,8-naphthyridin-4-yl)benzyl)sulfamide hydrochloride] | < 1000 nM | B (1< Fold <2) |
| C[C@@H](c1ccc(-c2ccnc3[nH]c(=O)ccc23)cc1)N(C)S(N)(=O)=O [Example 61, (S)-(N-methyl-N-(1-(4-(7-oxo-7,8-dihydro-1,8-naphthyridin-4-yl)phenyl)ethyl)sulfamide hydrochloride] | < 1000 nM | B (1< Fold <2) |
| NS(=O)(=O)N1Cc2ccc(-c3ccnc4[nH]c(=O)ccc34)cc2C1 [Example 64, 5-(7-oxo-7,8-dihydro-1,8-naphthyridin-4-yl)isoindolin-2-yl)sulfamide hydrochloride] | < 1000 nM | B (1< Fold <2) |
| NS(=O)(=O)N1CCc2ccc(-c3ccnc4[nH]c(=O)ccc34)cc2C1 [Example 65, 7-(7-oxo-7,8-dihydro-1,8-naphthyridin-4-yl)dihydroisoquinoline-2(1H)-sulfamide hydrochloride] | < 1000 nM | B (1< Fold <2) |
| NCCc1ccc(F)c(Nc2ccnc3[nH]c(=O)ccc23)c1 [Example 79, 5-((5-(2-aminoethyl)-2-fluorophenyl)amino)-1,8-naphthyridin-2(1H)-one dihydrochloride] | 1000 to 10000 nM | B (1< Fold <2) |
| CN(CCc1cccc(Nc2ccnc3[nH]c(=O)ccc23)c1)S(N)(=O)=O [Example 93, N-methyl-N-(3-((7-oxo-7,8-dihydro-1,8-naphthyridin-4-yl)amino)phenethyl)sulfamide dihydrochloride] | < 1000 nM | B (1< Fold <2) |
| CCN(CCc1cccc(Nc2ccnc3[nH]c(=O)ccc23)c1)S(N)(=O)=O [Example 94, N-ethyl-N-(3-((7-oxo-7,8-dihydro-1,8-naphthyridin-4-yl)amino)phenethyl)sulfamide dihydrochloride] | < 1000 nM | B (1< Fold <2) |
| NS(=O)(=O)Nc1ccc(Nc2ccnc3[nH]c(=O)ccc23)cc1 [Example 97, N-(4-((7-oxo-7,8-dihydro-1,8-naphthyridin-4-yl)amino)phenyl)sulfamide dihydrochloride] | < 1000 nM | B (1< Fold <2) |
| NS(=O)(=O)N1CCc2ccc(Nc3ccnc4[nH]c(=O)ccc34)cc2C1 [Example 102, 7-((7-oxo-7,8-dihydro-1,8-naphthyridin-4-yl)amino)-3,4-dihydroisoquinolin-2(1H)-yl)sulfamide dihydrochloride] | < 1000 nM | A (>2) |

Second part, led by results:

| IC50 [2] | SMILES | Cellular activity: increase in IRF3 by the compound compared to cGAMP, as fold [1] |
| --- | --- | --- |
| < 1000 nM | NS(=O)(=O)Nc1cccc(-c2ccnc3[nH]c(=O)ccc23)c1 [Example 35, N-(3-(7-oxo-7,8-dihydro-1,8-naphthyridin-4-yl)phenyl)sulfamide hydrochloride] | B (1< Fold <2) |
| < 1000 nM | NS(=O)(=O)Nc1cc(-c2ccnc3[nH]c(=O)ccc23)ccc1F [Example 36, N-(2-fluoro-5-(7-oxo-7,8-dihydro-1,8-naphthyridin-4-yl)phenyl)sulfamide hydrochloride] | B (1< Fold <2) |
| < 1000 nM | NS(=O)(=O)NCc1cccc(-c2ccnc3[nH]c(=O)ccc23)c1 [Example 37, N-(3-(7-oxo-7,8-dihydro-1,8-naphthyridin-4-yl)benzyl)sulfamide] | B (1< Fold <2) |
| < 1000 nM | NS(=O)(=O)NCc1cc(-c2ccnc3[nH]c(=O)ccc23)ccc1F [Example 38, N-(2-fluoro-5-(7-oxo-7,8-dihydro-1,8-naphthyridin-4-yl)benzyl)sulfamide hydrochloride] | B (1< Fold <2) |
| < 1000 nM | NS(=O)(=O)NCc1ccc(-c2ccnc3[nH]c(=O)ccc23)c(F)c1 [Example 42, N-(3-fluoro-4-(7-oxo-7,8-dihydro-1,8-naphthyridin-4-yl)benzyl)sulfamide hydrochloride] | A (>2) |
| < 1000 nM | NS(=O)(=O)NCc1ccc(-c2ccnc3[nH]c(=O)ccc23)c(F)c1F [Example 43, N-(2,3-difluoro-4-(7-oxo-7,8-dihydro-1,8-naphthyridin-4-yl)benzyl)sulfamide hydrochloride] | B (1< Fold <2) |
| < 1000 nM | CC(NS(N)(=O)=O)c1ccc(-c2ccnc3[nH]c(=O)ccc23)cc1.Cl (stereo not shown) [Example 45, N-(1-(4-(7-oxo-7,8-dihydro-1,8-naphthyridin-4-yl)phenyl)ethyl)sulfamide hydrochloride] | B (1< Fold <2) |
| < 1000 nM | CN(Cc1ccc(-c2ccnc3[nH]c(=O)ccc23)cc1F)S(N)(=O)=O.Cl [Example 52, N-(2-fluoro-4-(7-oxo-7,8-dihydro-1,8-naphthyridin-4-yl)benzyl)-N-methylsulfamide hydrochloride] | B (1< Fold <2) |
| < 1000 nM | CCN(Cc1ccc(-c2ccnc3[nH]c(=O)ccc23)cc1F)S(N)(=O)=O.Cl [Example 53, N-ethyl-N-(2-fluoro-4-(7-oxo-7,8-dihydro-1,8-naphthyridin-4-yl)benzyl)sulfamide hydrochloride] | B (1< Fold <2) |
| < 1000 nM | Cl.NS(=O)(=O)N(Cc1ccc(-c2ccnc3[nH]c(=O)ccc23)cc1F)C1CC1 [Example 54, N-cyclopropyl-N-(2-fluoro-4-(7-oxo-7,8-dihydro-1,8-naphthyridin-4-yl)benzyl)sulfamide hydrochloride] | B (1< Fold <2) |
